Data from patent publication US7189850B2, “Triaza-spiropiperidine derivatives” (Hoffmann-La Roche Inc., priority 2003, dated 2007).

target: T1, mGlyT-1b (Mus musculus, UniProt P28571); test: Glycine uptake inhibition assay (mGlyT-1b); format: cell-based; conditions: not given
T1 sequence (P28571 1-651 isoform P28571-2): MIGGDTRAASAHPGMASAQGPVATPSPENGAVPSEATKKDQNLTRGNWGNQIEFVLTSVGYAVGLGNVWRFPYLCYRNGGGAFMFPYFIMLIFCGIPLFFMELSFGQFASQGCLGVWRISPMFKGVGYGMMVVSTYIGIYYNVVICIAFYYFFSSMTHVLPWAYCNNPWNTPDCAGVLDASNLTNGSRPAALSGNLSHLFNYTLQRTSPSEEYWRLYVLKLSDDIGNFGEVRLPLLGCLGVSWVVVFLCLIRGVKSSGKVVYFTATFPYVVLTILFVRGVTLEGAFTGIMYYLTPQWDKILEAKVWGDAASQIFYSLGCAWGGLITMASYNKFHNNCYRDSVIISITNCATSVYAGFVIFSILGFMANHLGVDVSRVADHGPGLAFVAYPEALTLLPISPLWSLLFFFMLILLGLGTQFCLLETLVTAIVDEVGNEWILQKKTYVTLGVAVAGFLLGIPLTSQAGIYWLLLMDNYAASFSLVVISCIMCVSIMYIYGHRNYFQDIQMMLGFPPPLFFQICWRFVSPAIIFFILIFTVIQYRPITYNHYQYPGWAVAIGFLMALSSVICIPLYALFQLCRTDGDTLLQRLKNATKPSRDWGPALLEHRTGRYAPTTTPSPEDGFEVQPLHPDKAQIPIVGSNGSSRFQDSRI

Q: For `O=C1NCN(c2ccccc2)C12CCN(C1CCCCC1(O)c1ccc(F)cc1)CC2` (racemic) [Example 75, (rac,cis)-8-[2-(4-Fluoro-phenyl)-2-hydroxy-cyclohexyl]-1-phenyl-1,3,8-triaza-spiro[4.5]decan-4-one], which IC50 is on record?
A: 41 nM

Q: For `O=C1NCN(c2ccc(Cl)cc2)C12CCN(C1CCCCC1(O)c1ccc(Cl)cc1)CC2` (racemic) [Example 90, (rac,cis)-1-(4-Chloro-phenyl)-8-[2-(4-chloro-phenyl)-2-hydroxy-cyclohexyl]-1,3,8-triaza-spiro[4.5]decan-4-one], which IC50 is on record?
A: 43 nM

Q: Which IC50 does the source give for `Cc1ccc(C2CCCCC2N2CCC3(CC2)C(=O)NCN3c2ccc(F)cc2)cc1` (racemic) [Example 22, (rac,cis)-1-(4-Fluoro-phenyl)-8-(2-p-tolyl-cyclohexyl)-1,3,8-triaza-spiro[4.5]decan-4-one] here?
A: 29 nM

Q: For `O=C1NCN(c2ccc(F)cc2)C12CCN(C1CCCCC1c1ccc(F)cc1)CC2` (racemic) [Example 24, (rac,cis)-1-(4-Fluoro-phenyl)-8-[2-(4-fluoro-phenyl)-cyclohexyl]-1,3,8-triaza-spiro[4.5]decan-4-one], which IC50 is on record?
A: 67 nM

Q: With `O=C1NCN(c2ccccc2)C12CCN(C1COCCC1(O)c1ccccc1)CC2` (racemic) [Example 99, (rac,cis)-8-(4-Hydroxy-4-phenyl-tetrahydro-pyran-3-yl)-1-phenyl-1,3,8-triaza-spiro[4.5]decan-4-one] as the molecule, how does the IC50 read?
A: 58 nM

Q: With `O=C1NCN(c2ccc(F)cc2)C12CCN(C1CCCCC1(O)c1ccc(Cl)cc1)CC2` (racemic) [Example 88, (rac,cis)-8-[2-(4-Chloro-phenyl)-2-hydroxy-cyclohexyl]-1-(4-fluoro-phenyl)-1,3,8-triaza-spiro[4.5]decan-4-one] as the molecule, how does the IC50 read?
A: 60 nM

Q: For `O=C1NCN(c2ccccc2)C12CCN(C1CCCCC1(O)c1ccncc1)CC2` (racemic) [Example 77, (rac,cis) 8-(2-Hydroxy-2-pyridin-4-yl-cyclohexyl)-1-phenyl-1,3,8-triaza-spiro[4.5]decan-4-one], which IC50 is on record?
A: 62 nM

Q: Which IC50 does the source give for `O=C1NCN(c2ccc(F)cc2)C12CCN([C@H]1CCCC[C@H]1c1ccc(Cl)cc1)CC2` (racemic) [Example 17, (rac,cis)-8-[2-(4-Chloro-phenyl)-cyclohexyl]-1-(4-fluoro-phenyl)-1,3,8-triaza-spiro[4.5]decan-4-one] here?
A: 74 nM

Q: Which IC50 does the source give for `COc1ccc(N2CNC(=O)C23CCN(C2CCCCC2(O)c2ccc(Cl)cc2)CC3)cc1` (racemic) [Example 92, (rac,cis)-8-[2-(4-Chloro-phenyl)-2-hydroxy-cyclohexyl]-1-(4-methoxy-phenyl)-1,3,8-triaza-spiro[4.5]decan-4-one] here?
A: 99 nM

Q: Which IC50 does the source give for `O=C1NCN(c2ccc(Cl)c(Cl)c2)C12CCN(C1CCCCC1c1ccccc1)CC2` (racemic) [Example 59, (rac,cis)-1-(3,4-Dichloro-phenyl)-8-(2-phenyl-cyclohexyl)-1,3,8-triaza-spiro[4.5]decan-4-one] here?
A: 32 nM

Q: With `O=C1NCN(c2ccccc2)C12CCN(C1CCCCC1(O)c1ccc(Cl)cc1)CC2` (racemic) [Example 78, (rac,cis)-8-[2-(4-Chloro-phenyl)-2-hydroxy-cyclohexyl]-1-phenyl-1,3,8-triaza-spiro[4.5]decan-4-one] as the molecule, how does the IC50 read?
A: 86 nM

Q: Which IC50 does the source give for `O=C1NCN(c2ccccc2)C12CCN(C1CCOCC1(O)c1ccccc1)CC2` (racemic) [Example 100, (rac,cis)-8-(3-Hydroxy-3-phenyl-tetrahydro-pyran-4-yl)-1-phenyl-1,3,8-triaza-spiro[4.5]decan-4-one] here?
A: 90 nM

Q: For `O=C1NCN(c2ccc(Cl)cc2)C12CCN(C1CCCCC1(O)c1ccc(F)cc1)CC2` (racemic) [Example 89, (rac,cis)-1-(4-Chloro-phenyl)-8-[2-(4-fluoro-phenyl)-2-hydroxy-cyclohexyl]-1,3,8-triaza-spiro[4.5]decan-4-one], which IC50 is on record?
A: 15 nM

Q: Which IC50 does the source give for `CC(C)CCN1CNC(=O)C12CCN(C1CCCCC1c1ccccc1)CC2` (racemic) [Example 54, (rac,cis)-1-(3-Methyl-butyl)-8-(2-phenyl-cyclohexyl)-1,3,8-triaza-spiro[4.5]decan-4-one] here?
A: 52 nM

Q: Which IC50 does the source give for `O=C1NCN(c2ccccc2)C12CCN(C1CCCCC1(O)c1ccccc1)CC2` (racemic) [Example 101, (rac,trans)-8-(2-Hydroxy-2-phenyl-cyclohexyl)-1-phenyl-1,3,8-triaza-spiro[4.5]decan-4-one] here?
A: 56 nM

Q: For `Cc1ccccc1C1(O)CCCCC1N1CCC2(CC1)C(=O)NCN2c1ccccc1` (racemic) [Example 76, (rac,cis)-8-(2-Hydroxy-2-o-tolyl-cyclohexyl)-1-phenyl-1,3,8-triaza-spiro[4.5]decan-4-one], which IC50 is on record?
A: 50 nM

Q: With `O=C1NCN(c2ccccc2)C12CCN(C1CCCCC1(O)c1ccccc1)CC2` (racemic) [Example 74, (rac,cis)-8-(2-Hydroxy-2-phenyl-cyclohexyl)-1-phenyl-1,3,8-triaza-spiro[4.5]decan-4-one] as the molecule, how does the IC50 read?
A: 44 nM

Q: With `O=C1NCN(c2ccc(F)cc2)C12CCN(C1CCCCC1(O)c1ccc(F)cc1)CC2` (racemic) [Example 87, (rac,cis)-1-(4-Fluoro-phenyl)-8-[2-(4-fluoro-phenyl)-2-hydroxy-cyclohexyl]-1,3,8-triaza-spiro[4.5]decan-4-one] as the molecule, how does the IC50 read?
A: 24 nM

same assay, conditions: Flp-in-CHO cells stably transfected with mGlyT-1b cDNA; [3H]-glycine 60 nM and 25 μM non-radioactive glycine; 20 min preincubation at 22° C.; read-out: IC50 at GlyT-1 (inhibition of glycine uptake)

Q: With `Cc1ccc(N2CNC(=O)C23CCN(C2CCCCC2(O)c2ccc(F)cc2)CC3)cc1` (racemic) [Example 91, (rac,cis)-8-[2-(4-Fluoro-phenyl)-2-hydroxy-cyclohexyl]-1-p-tolyl-1,3,8-triaza-spiro[4.5]decan-4-one] as the molecule, how does the IC50 read?
A: 39 nM

test system: not given; test: not given; conditions: not given

Q: For `Cc1ccc(C2CCCCC2N2CCC3(CC2)C(=O)NCN3c2ccccc2)cc1` (racemic) [Example 8, (rac,cis)-1-Phenyl-8-(2-p-tolyl-cyclohexyl)-1,3,8-triaza-spiro[4.5]decan-4-one], which melting point is on record?
A: 174 to 176 °C

Q: For `O=C1NCN(c2ccccc2)C12CCN(C1CCCCC1c1ccccc1)CC2` (racemic) [Example 1, (rac,cis)-1-Phenyl-8-(2-phenyl-cyclohexyl)-1,3,8-triaza-spiro[4.5]decan-4-one], which melting point is on record?
A: 205 to 208 °C

Q: Which melting point does the source give for `O=C1NCN(c2ccccc2)C12CCN(C1CCCCC1c1ccccc1)CC2` (racemic) [Example 68, (rac,trans)-1-Phenyl-8-(2-phenyl-cyclohexyl)-1,3,8-triaza-spiro[4.5]decan-4-one] here?
A: 254 to 256 °C

Q: Which melting point does the source give for `O=C1NCN(c2ccccc2)C12CCN([C@H]1CCCC[C@H]1c1ccc(Cl)cc1)CC2` (racemic) [Example 11, (rac,cis)-8-[2-(4-Chloro-phenyl)-cyclohexyl]-1-phenyl-1,3,8-triaza-spiro[4.5]decan-4-one] here?
A: 204 to 206 °C

Q: Which melting point does the source give for `O=C1NCN(c2ccccc2)C12CCN([C@H]1CCCC[C@H]1c1ccc(F)cc1)CC2` (racemic) [Example 10, (rac,cis)-8-[2-(4-Fluoro-phenyl)-cyclohexyl]-1-phenyl-1,3,8-triaza-spiro[4.5]decan-4-one] here?
A: 198 to 200 °C

Q: For `O=C1NCN(c2ccccc2)C12CCN([C@H]1CCCC[C@H]1c1ccc(Cl)c(Cl)c1)CC2` (racemic) [Example 13, (rac,cis)-8-[2-(3,4-Dichloro-phenyl)-cyclohexyl]-1-phenyl-1,3,8-triaza-spiro[4.5]decan-4-one], which melting point is on record?
A: 198 to 200 °C
